From the supplement of paper PMC5770543
± gives the standard deviation.

What was measured:
[1] = tested on: Toxoplasma gondii RH tachyzoites; experiment: % growth inhibition vs DMSO (48 h luciferase); higher = more inhibition; conditions: 10 µM
[2] = tested on: Plasmodium falciparum 3D7; experiment: % inhibition of schizont-to-ring transition vs DMSO; higher = more inhibition
In short: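 Tightly synchronised P. falciparum schizonts (about 40–42 hours post-invasion, 1% parasitemia, 2.5% hematocrit, AlbuMAX-supplemented RPMI) were exposed to compound at 1, 3 or 10 µM, with vehicle and positive controls. Cells were glutaraldehyde-fixed, Triton-permeabilised, stained with Hoechst 33342 and counted by flow cytometry (at least 100,000 events). Schizont-to-ring transition inhibition is new ring formation relative to vehicle controls, averaged over three experiments.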

[3] = tested on: Toxoplasma gondii RH tachyzoites; experiment: plaque count per well; higher = less inhibition; extreme values may be limits of the assay; conditions: 10 µM; 8-10 days
Procedure: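 T. gondii RH tachyzoites expressing firefly luciferase were grown in HFF monolayers for 48 h with compound. % growth inhibition at 10 µM and EC50 (2-fold dilutions from 10 µM) were read by luminescence relative to 1% DMSO; EC50 listed as 10 (not determined, <80% inhibition) is left out. Plaque assays: 50 tachyzoites per well with 10 µM compound for 8-10 days, giving plaque count and area by crystal violet/ImageJ. Egress: median time to egress after 1 µM A23187 ionophore following 24 h of 10 µM compound (DMSO ~1.8 min; >10 = no egress within 10 min).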

[4] = tested on: Plasmodium falciparum 3D7; experiment: EC50 growth inhibition (60 h, SYBR Green); conditions: stage: ring-stage start
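Throughout, for % growth inhibition vs DMSO (48 h luciferase): tested in triplicate wells of 96-well plates on confluent HFF monolayers, with 1% DMSO wells as negative control in four replicates.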

SMILES | % growth inhibition [1] | % inhibition of schizont-to-ring transition ([2]; 1 µM) | % inhibition of schizont-to-ring transition ([2]; 3 µM) | % inhibition of schizont-to-ring transition ([2]; 10 µM) | plaque count per well [3] | EC50 growth inhibition [4]
Cc1cc(NC(=O)c2cccc(C(F)(F)F)c2)n(-c2nc(-c3ccc4c(c3)OCO4)cs2)n1 | < 0% | 13.2% | 16.2% | 18.9% | 26 | 
Nc1ccn([C@@H]2O[C@H](CO)[C@@H](O)[C@H]2O)c(=O)n1 | < 0% | 35.8% | 40.5% | 42.6% | 29 | 
COc1ccc(C2N(C)c3ccccc3N2C)cc1 | 15.2 ± 13% | < 0% | < 0% | 11.8% | 28 | 
CC(C)(C)c1ccc(C(=O)Nc2nc3ccccc3s2)cc1 | 12.1 ± 13% | 44.3% | 45.2% | 54.4% | 33 | 
CCCCCCOC(=O)C1=C(C)NC(=O)NC1c1ccccc1F (stereo not given) | < 0% | 32.7% | 32.8% | 40.9% | 31 | 
COc1ccc(CCN2C(=O)c3[nH]nc(-c4cc(Cl)c(C)cc4O)c3C2c2ccccc2F)cc1 (stereo not given) | < 0% | 20% | 20.6% | 46.1% | 0 | 
CN(C)c1ccc(N=Cc2ccc(N3CCOCC3)cc2)cc1 | < 0% | 17.3% | 20% | 24% | 22 | 
CCOc1ccccc1NC(=O)CN1CCN(C(=O)c2ccco2)CC1 | < 0% | 43.4% | 49.8% | 60% | 35 | 
CCOC(=O)C1=C(C)N=c2sc(=Cc3ccccc3O)c(=O)n2C1c1ccc(OC)c2ccccc12 (stereo not given) | 4.31 ± 0.81% | 13.3% | 53.1% | 60.5% | 18 | 
Cc1nc2ccccc2c(O)c1CC=C(Cl)Cl | 79.46 ± 0.64% | 10.8% | 31.3% | 67.4% |  | 4560 nM
O=c1cc(NC2CCN(CCCc3ccccc3)CC2)c2cc(Cl)ccc2o1 | 22 ± 19% | 61.1% | 66.7% | 68.9% |  | 396 nM
COc1ccc(C2C(C(=O)Nc3cccc(OC)c3)c3ccccc3C(=O)N2C2CCCCC2)cc1 (stereo not given) | 13.5 ± 15% | 12.8% | 71.3% | 76.4% | 0 | 
COc1ccc2nc(C)cc(Nc3ccccc3O)c2c1 | 22.7 ± 2.9% | 20.4% | 41.3% | 66.3% |  | 438 nM
Cc1ccc(C(=O)c2oc3ccc4c(C)cc(=O)oc4c3c2C)cc1 | < 0% | 6.95% | 10.6% | 20.4% | 24 | 
O=C(NC1CCN(Cc2ccccc2)CC1)c1cc(-c2ccncc2)nc2ccc(Cl)cc12 | 54.7 ± 2.7% | 22.1% | 60.9% | 63.4% |  | 1920 nM
COc1cccc(Cn2c(Oc3ccccc3)nc3c2c(=O)n(C)c(=O)n3C)c1 | 72.4 ± 4.8% | 23.6% | 27.1% | 45.9% |  | 516 nM
O=C1c2ccccc2-c2nnc(-c3ccc(Br)cc3)cc21 | < 0% | 5.35% | 17.7% | 32.6% | 24 | 

SMILES | % growth inhibition [1] | % inhibition of schizont-to-ring transition ([2]; 1 µM) | % inhibition of schizont-to-ring transition ([2]; 3 µM) | % inhibition of schizont-to-ring transition ([2]; 10 µM) | plaque count per well [3] | EC50 growth inhibition [4]
COc1ccc(-c2cc(=O)oc3c4c(ccc23)OCN(Cc2ccc(F)cc2)C4)cc1 | 63.1 ± 3.1% | < 0% | 10% | 48.3% |  | 4110 nM
CCN1CCN(c2cc(C)c3cc(NC(=O)c4ccc(OC)c(OC)c4)ccc3n2)CC1 | 56.5 ± 4.2% | 21.3% | 45.6% | 63.3% |  | 814 nM
Cc1ccc(Cn2c(N3CCC(C(=O)NCc4cccs4)CC3)nc3ccccc32)cc1 | 66.1 ± 3.6% | 47.3% | 68% | 69.8% |  | 744 nM
CCOC(=O)c1c[nH]c2c(CC)cccc2c1=O | 29.3 ± 36% | 28.5% | 28.8% | 40.9% |  | 3280 nM
COc1cc(C(=O)Nc2nc3c(cc4c5c(cccc53)CC4)s2)cc(OC)c1OC | 4.43 ± 6.7% | 3.9% | 8.08% | 22.5% | 38 | 
COc1ccc(-c2cn3c(C(=O)Nc4ccccc4Cl)c(-c4ccccc4)c4c3n2CCCC4)cc1 | 42.7 ± 28% | 12.5% | 30.4% | 62.3% |  | 7130 nM
C=C(C)CCC(C)N1CCC(N2CCC(C(=O)NCCc3ccccc3)CC2)CC1 (stereo not given) | 20.9 ± 16% | < 0% | 1.71% | 48% |  | 3960 nM
CN1CCN(c2ncnc3c2[nH]c2ccc(Cl)cc23)CC1 | 28.6 ± 4.2% | 34% | 43.8% | 54.7% |  | 894 nM
COc1ccc(CCNC(=O)c2cc(S(=O)(=O)N3CC(C)CC(C)C3)ccc2Sc2ccc(F)cc2)cc1OC (stereo not given) | 11.7 ± 10% | 11.3% | 12.5% | 22.9% | 28 | 
CC(C)CNC(=O)c1c(N)n(CCc2ccccc2F)c2nc3ccccc3nc12 | < 0% | < 0% | < 0% | 15% | 28 | 
O=C(Nc1cccc(-c2nc3ccccc3[nH]2)c1)c1cccc(NC(=O)c2ccco2)c1 | 48.6 ± 19% | 28.5% | 37.6% | 52% |  | 6230 nM
O=C(NC1CCN(Cc2ccccc2)CC1)c1cc2nc(-c3ccc(Cl)s3)cc(C(F)(F)F)n2n1 | < 0% | 13.4% | 13.8% | 27.3% | 22 | 
COc1cc(OC)cc(N2C(=O)N(Cc3ccc(C(C)(C)C)cc3)c3ccccc3S2(=O)=O)c1 | 57.3 ± 12% | 13.8% | 15.2% | 47.7% |  | 3500 nM
COc1ccc(C)c2sc(N(Cc3cccnc3)C(=O)c3ccc(C#N)cc3)nc12 | < 0% | 21.7% | 24.1% | 58.5% | 23 | 
CC(C)(C)c1ccc(C2CC3=Nc4ccccc4N(C(=O)c4ccccc4Cl)C(c4ccc(F)cc4)C3=C(O)C2)cc1 (stereo not given) | 68.4 ± 10% | < 0% | 5.12% | 41.6% |  | 3410 nM
CCCCN(CCCC)S(=O)(=O)c1ccc(NC(=O)c2ccco2)cc1 | 74.8 ± 2.1% | 20% | 26.6% | 50.7% |  | 1530 nM
Oc1ccc(C(=C(Cl)Cl)c2ccc(O)cc2)cc1 | 78.3 ± 3.7% | 11.4% | 53.3% | 73.2% |  | 877 nM
